Source: patent US6737383B1, “Herbicidal oxadiazolidines” (priority 1999, dated 2004)

Key:
crabgrass = experiment: Test B pre/postemergence crabgrass; format: in vivo, Digitaria sanguinalis
Method in brief: (§1)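 Test chemicals in a non-phytotoxic solvent mixture with surfactant were sprayed preemergence onto planted seeds and postemergence onto plants 2 to 18 cm tall (1- to 4-leaf stage). After twelve to sixteen days in a greenhouse, injury was visually rated against untreated controls from 0 (no effect) to 10 (complete control).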

cocklebur = experiment: Test B pre/postemergence cocklebur; format: in vivo, Xanthium strumarium
Method in brief: as §1

rice = experiment: Test B flood test rice; format: in vivo, Oryza sativa
Method in brief: (§2)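 Each value is a visual injury score relative to controls, with 10 meaning complete control and 0 no effect. Evaluation took place twelve to sixteen days after the 2-leaf-stage plants were treated and kept in the greenhouse.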

pigweed = experiment: Test B pre/postemergence pigweed; format: in vivo, Amaranthus retroflexus
Method in brief: as §1

surinam grass = experiment: Test B pre/postemergence surinam grass; format: in vivo, Brachiaria decumbens
Method in brief: as §1

blackgrass = experiment: Test B pre/postemergence blackgrass; format: in vivo, Alopecurus myosuroides
Method in brief: as §1

giant foxtail = experiment: Test B pre/postemergence giant foxtail; format: in vivo, Setaria faberii
Method in brief: as §1

soybean = experiment: Test B pre/postemergence soybean; format: in vivo, Glycine max
Method in brief: as §1

smallflower flatsedge = experiment: Test B flood test smallflower flatsedge; format: in vivo, Cyperus difformis
Method in brief: as §2

wheat = experiment: Test B pre/postemergence wheat; format: in vivo, Triticum aestivum
Method in brief: as §1

corn = experiment: Test B pre/postemergence corn; format: in vivo, Zea mays
Method in brief: as §1

bamyardgrass = experiment: Test B flood test barnyardgrass; format: in vivo, Echinochloa crus-galli
Method in brief: as §2

duck salad = experiment: Test B flood test duck salad; format: in vivo, Heteranthera limosa
Method in brief: as §2

rape = experiment: Test B pre/postemergence rape; format: in vivo, Brassica napus
Method in brief: as §1

purple nutsedge = experiment: Test B pre/postemergence purple nutsedge; format: in vivo, Cyperus rotundus; settings: Preemergence
Method in brief: as §1

sugar beet = experiment: Test B pre/postemergence sugar beet; format: in vivo, Beta vulgaris
Method in brief: as §1

[1] = Postemergence, Rate 250 g/ha, scale 0 to 10, 0 no effect, 10 complete control
[2] = Postemergence, Rate 1000 g/ha, scale 0 to 10 (0 no effect, 10 complete control)
[3] = Preemergence, Rate 125 g/ha, scale 0 to 10 (0 no effect, 10 complete control)
[4] = Preemergence, Rate 500 g/ha, scale 0 (no effect) to 10 (complete control)
[5] = Rate 125 g/ha, Postemergence, scale 0 to 10, 0 no effect, 10 complete control
[6] = Rate 500 g/ha, Postemergence, 0 to 10 scale (0 no effect, 10 complete control)
[7] = Rate 1000 g/ha, Preemergence, scale 0 to 10 (0 no effect, 10 complete control)
[8] = Preemergence, Rate 250 g/ha, scale of 0 to 10 where 0 is no effect and 10 is complete control
[9] = Rate 125 g/ha, Postemergence section (flood test species), scale 0 to 10, 0 no effect, 10 complete control
[10] = Rate 250 g/ha, headed Pre-emergence (flood test species), scale 0 to 10 (0 no effect, 10 complete control)
[11] = Rate 500 g/ha, Postemergence section of Table B, 0 to 10 scale (0 no effect, 10 complete control)
[12] = Rate 500 g/ha, headed Pre-emergence (flood test species), scale 0 to 10 (0 no effect, 10 complete control)
[13] = Rate 1000 g/ha, Pre-emergence (as headed), scale 0 to 10
[14] = Rate 2000 g/ha, Pre-emergence (as headed), scale 0 to 10
[15] = flood test, listed under Postemergence, Rate 250 g/ha, scale 0 to 10, 0 no effect, 10 complete control

With CC(C)N(C(=O)n1oc(=O)n(-c2ccc(Cl)cc2Cl)c1=O)c1ccc(F)cc1 [Compound 7, 4-(2,4-Dichlorophenyl)-N-(4-fluorophenyl)-N-(1-methylethyl)-3,5-dioxo-1,2,4-oxadiazolidine-2-carboxamide] the “Crabgrass plant response rating” value (crabgrass; [1]) was 1, the “Crabgrass plant response rating” value (crabgrass; [2]) was 5 and the “Plant response rating, Crabgrass” value (crabgrass; [3]) was 7. For the same compound, the “Crabgrass plant response rating” value (crabgrass; [4]) was 8, the “Crabgrass plant response rating” value (crabgrass; [5]) was 0 and the “Crabgrass plant response rating” value (crabgrass; [6]) was 3. For the same compound, the “Plant response rating, Crabgrass” value (crabgrass; [7]) was 8, the “Cocklebur plant response rating” value (cocklebur; [1]) was 0 and the “Cocklebur plant response rating” value (cocklebur; [2]) was 2. For the same compound, the “Plant response rating, Cocklebur” value (cocklebur; [8]) was 0, the “Cocklebur plant response rating” value (cocklebur; [4]) was 0 and the “Cocklebur plant response rating” value (cocklebur; [5]) was 0. The “Cocklebur plant response rating” value (cocklebur; [6]) was 0, the “Plant response rating, Cocklebur” value (cocklebur; [7]) was 0 and the “Rice plant response rating” value (rice; [2]) was 0. The “Rice plant response rating” value (rice; [9]) was 0, the “Rice plant response rating” value (rice; [10]) was 0 and the “Rice plant response rating” value (rice; [11]) was 0. The “Plant response rating, Rice” value (rice; [12]) was 0, the “Rice plant response rating” value (rice; [13]) was 0 and the “Rice plant response rating” value (rice; [14]) was 0. The “Rice plant response rating” value (rice; [15]) was 0, the “Redroot pigweed plant response rating” value (pigweed; [1]) was 0 and the “Redroot pigweed plant response rating” value (pigweed; [2]) was 0. The “Plant response rating, Redroot pigweed” value (pigweed; [3]) was 0, the “Plant response rating, Redroot pigweed” value (pigweed; [8]) was 0 and the “Redroot pigweed plant response rating” value (pigweed; [4]) was 0. For the same compound, the “Redroot pigweed plant response rating” value (pigweed; [5]) was 0, the “Redroot pigweed plant response rating” value (pigweed; [6]) was 0 and the “Plant response rating, Redroot pigweed” value (pigweed; [7]) was 2. For the same compound, the “B. signalgrass plant response rating” value (surinam grass; [1]) was 0, the “B. signalgrass plant response rating” value (surinam grass; [2]) was 6 and the “Plant response rating, B. signalgrass” value (surinam grass; [3]) was 0. For the same compound, the “Plant response rating, B. signalgrass” value (surinam grass; [8]) was 0, the “B. signalgrass plant response rating” value (surinam grass; [4]) was 0 and the “B. signalgrass plant response rating” value (surinam grass; [5]) was 0. The “B. signalgrass plant response rating” value (surinam grass; [6]) was 3, the “Plant response rating, B. signalgrass” value (surinam grass; [7]) was 3 and the “Blackgrass plant response rating” value (blackgrass; [1]) was 2. The “Blackgrass plant response rating” value (blackgrass; [2]) was 6, the “Plant response rating, Blackgrass” value (blackgrass; [3]) was 0 and the “Plant response rating, Blackgrass” value (blackgrass; [8]) was 0. For the same compound, the “Blackgrass plant response rating” value (blackgrass; [4]) was 0, the “Blackgrass plant response rating” value (blackgrass; [5]) was 0 and the “Blackgrass plant response rating” value (blackgrass; [6]) was 3. The “Plant response rating, Blackgrass” value (blackgrass; [7]) was 2, the “Giant foxtail plant response rating” value (giant foxtail; [1]) was 3 and the “Giant foxtail plant response rating” value (giant foxtail; [2]) was 6. For the same compound, the “Plant response rating, Giant foxtail” value (giant foxtail; [3]) was 2, the “Plant response rating, Giant foxtail” value (giant foxtail; [8]) was 5 and the “Giant foxtail plant response rating” value (giant foxtail; [4]) was 8. For the same compound, the “Giant foxtail plant response rating” value (giant foxtail; [5]) was 0, the “Giant foxtail plant response rating” value (giant foxtail; [6]) was 5 and the “Plant response rating, Giant foxtail” value (giant foxtail; [7]) was 9. For the same compound, the “Soybean plant response rating” value (soybean; [1]) was 1, the “Soybean plant response rating” value (soybean; [2]) was 5 and the “Plant response rating, Soybean” value (soybean; [3]) was 0. For the same compound, the “Plant response rating, Soybean” value (soybean; [8]) was 0, the “Soybean plant response rating” value (soybean; [4]) was 0 and the “Soybean plant response rating” value (soybean; [5]) was 0. The “Plant response rating, Soybean” value (soybean; [7]) was 0, the “S. Flatsedge plant response rating” value (smallflower flatsedge; [2]) was 0 and the “S. Flatsedge plant response rating” value (smallflower flatsedge; Pre-emergence, Rate 1000 g/ha, scale 0 to 10 (0 no effect, 10 complete control)) was 0. For the same compound, the “S. Flatsedge plant response rating” value (smallflower flatsedge; [9]) was 0, the “S. Flatsedge plant response rating” value (smallflower flatsedge; [10]) was 0 and the “Plant response rating, S. Flatsedge” value (smallflower flatsedge; [12]) was 0. The “S. Flatsedge plant response rating” value (smallflower flatsedge; [14]) was 0, the “S. Flatsedge plant response rating” value (smallflower flatsedge; [15]) was 0 and the “Wheat plant response rating” value (wheat; [1]) was 0. For the same compound, the “Wheat plant response rating” value (wheat; [2]) was 2, the “Plant response rating, Wheat” value (wheat; [3]) was 0 and the “Plant response rating, Wheat” value (wheat; [8]) was 0. The “Wheat plant response rating” value (wheat; [4]) was 0, the “Wheat plant response rating” value (wheat; [5]) was 0 and the “Plant response rating, Wheat” value (wheat; [7]) was 0. The “Corn plant response rating” value (corn; [1]) was 0, the “Corn plant response rating” value (corn; [2]) was 0 and the “Plant response rating, Corn” value (corn; [3]) was 0. For the same compound, the “Plant response rating, Corn” value (corn; [8]) was 0, the “Corn plant response rating” value (corn; [4]) was 0 and the “Corn plant response rating” value (corn; [5]) was 0. For the same compound, the “Corn plant response rating” value (corn; [6]) was 0, the “Plant response rating, Corn” value (corn; [7]) was 0 and the “Barnyardgrass plant response rating” value (bamyardgrass; [2]) was 0. The “Barnyardgrass plant response rating” value (bamyardgrass; [9]) was 0, the “Barnyardgrass plant response rating” value (bamyardgrass; [10]) was 0 and the “Barnyardgrass plant response rating” value (bamyardgrass; [11]) was 0. For the same compound, the “Plant response rating, Barnyardgrass” value (bamyardgrass; [12]) was 0, the “Barnyardgrass plant response rating” value (bamyardgrass; [13]) was 0 and the “Barnyardgrass plant response rating” value (bamyardgrass; Rate 2000 g/ha, Pre-emergence (as headed), scale 0 to 10, 0 no effect, 10 complete control) was 0. The “Barnyardgrass plant response rating” value (bamyardgrass; [15]) was 0, the “Ducksalad plant response rating” value (duck salad; [2]) was 0 and the “Ducksalad plant response rating” value (duck salad; [9]) was 0. For the same compound, the “Ducksalad plant response rating” value (duck salad; [10]) was 0, the “Ducksalad plant response rating” value (duck salad; [11]) was 0 and the “Plant response rating, Ducksalad” value (duck salad; [12]) was 0. The “Ducksalad plant response rating” value (duck salad; [13]) was 0, the “Ducksalad plant response rating” value (duck salad; [14]) was 0 and the “Ducksalad plant response rating” value (duck salad; [15]) was 0. For the same compound, the “Rape plant response rating” value (rape; [1]) was 0, the “Rape plant response rating” value (rape; [2]) was 0 and the “Plant response rating, Rape” value (rape; [3]) was 0. For the same compound, the “Plant response rating, Rape” value (rape; [8]) was 0, the “Rape plant response rating” value (rape; [4]) was 0 and the “Rape plant response rating” value (rape; [5]) was 0. The “Rape plant response rating” value (rape; [6]) was 0, the “Plant response rating, Rape” value (rape; [7]) was 0 and the “Plant response rating, Nutsedge” value (purple nutsedge; Rate 125 g/ha, scale 0 to 10 (0 no effect, 10 complete control)) was 0. The “Plant response rating, Nutsedge” value (purple nutsedge; Rate 250 g/ha, scale of 0 to 10 where 0 is no effect and 10 is complete control) was 0, the “Nutsedge plant response rating” value (purple nutsedge; Rate 500 g/ha, scale 0 (no effect) to 10 (complete control)) was 0 and the “Plant response rating, Nutsedge” value (purple nutsedge; Rate 1000 g/ha, scale 0 to 10 (0 no effect, 10 complete control)) was 0. For the same compound, the “Sugarbeets plant response rating” value (sugar beet; [1]) was 0, the “Sugarbeets plant response rating” value (sugar beet; [2]) was 2 and the “Plant response rating, Sugarbeets” value (sugar beet; [3]) was 0. The “Plant response rating, Sugarbeets” value (sugar beet; [8]) was 0, the “Sugarbeets plant response rating” value (sugar beet; [4]) was 0 and the “Sugarbeets plant response rating” value (sugar beet; [5]) was 0. The “Plant response rating, Sugarbeets” value (sugar beet; [7]) was 0.
